Biological target: T1, Mac-1 (Homo sapiens, UniProt P05107+P11215)
T1 construct: isolate neutrophils from ethylenediaminetetraacetic acid (EDTA)-treated venous blood obtained from healthy human volunteers; endogenous in cells; host or cells: human neutrophils (PMN) isolated from venous blood of healthy volunteers
Assay: Human neutrophil Mac-1 adhesion assay (fMLP-stimulated PMN adhesion to KLH-coated plates)
Assay type: cell-based
Conditions: human neutrophils, read-out: percent drug inhibition vs. stimulus control
Procedure: Protocol for Human Neutrophil Mac-1 Adhesion Assay
Namely, we utilized Ferrante and Thong's methodology to isolate neutrophils from ethylenediaminetetraacetic acid (EDTA)-treated venous blood obtained from healthy human volunteers. Keyhole limpet hemocyanin (KLH) coated microtiter plates were prepared as follows:
All pipetting was automated using the Cetus Pro/Pette (Perkin-Elmer; division of Applied Biosystems, Foster, Calif.). KLH, Megathura crenulata; Calbiochem-Novabiochem, La Jolla, Calif., was prepared at a concentration of 0.5 mg/mL in Dulbecco's PBS phosphate buffered saline (PBS) with Ca^++, pH 7.2 (DPBS).
Microtiter plates are prewashed with 50% EtOH for 1 hour at 37° C., then drained and blotted to dryness. Then 0.3 mL KLH solution was pipetted into each well of the 96 well microtiter plate, covered and incubated overnight at 37° C. […]
a. mean unstimulated cell control OD is determined and subtracted from all other values b. mean net stimulated, e.g., FMLP, control values are determined c. mean drug values are determined and percent drug inhibition vs. stimulus control are calculated as follows: [formula] d. IC50 determinations, plotting logdose vs. percent inhibition, are determined by linear regression analysis using the least squares method.

T1 sequence (P05107 23-769, other chains not shown): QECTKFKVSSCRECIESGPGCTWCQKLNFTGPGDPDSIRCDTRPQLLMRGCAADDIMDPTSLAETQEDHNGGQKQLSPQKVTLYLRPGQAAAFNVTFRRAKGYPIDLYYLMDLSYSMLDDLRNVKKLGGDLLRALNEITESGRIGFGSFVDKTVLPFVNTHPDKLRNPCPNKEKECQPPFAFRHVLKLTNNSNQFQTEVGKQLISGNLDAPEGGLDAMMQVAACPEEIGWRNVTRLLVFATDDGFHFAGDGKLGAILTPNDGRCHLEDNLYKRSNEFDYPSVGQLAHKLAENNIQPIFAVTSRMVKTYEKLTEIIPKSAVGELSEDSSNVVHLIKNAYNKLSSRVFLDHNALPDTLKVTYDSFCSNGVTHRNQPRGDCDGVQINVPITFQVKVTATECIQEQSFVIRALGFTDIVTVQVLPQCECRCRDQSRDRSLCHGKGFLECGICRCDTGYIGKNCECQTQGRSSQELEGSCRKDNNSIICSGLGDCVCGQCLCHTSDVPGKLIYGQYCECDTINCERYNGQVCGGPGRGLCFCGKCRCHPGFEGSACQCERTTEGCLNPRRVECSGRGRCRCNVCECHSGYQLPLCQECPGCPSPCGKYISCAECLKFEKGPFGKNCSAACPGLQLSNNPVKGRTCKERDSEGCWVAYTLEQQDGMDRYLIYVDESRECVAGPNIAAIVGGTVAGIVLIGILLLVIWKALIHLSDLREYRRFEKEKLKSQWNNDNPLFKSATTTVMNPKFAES

Compound | inhibition at 33 µM
CC(C)Oc1c(C(=O)Nc2nnn[nH]2)sc2c1CCC2 [Example 2, 3-Isopropoxy-5,6-dihydro-4H-cyclopenta[b]thiophene-2-carboxylic acid (1H-tetrazol-5-yl)-amide] | 27%
CC(C)Oc1c(C(=O)Nc2nnn[nH]2)sc2c1CS(=O)(=O)CC2 [Example 6, 3-Isopropoxy-5,5-dioxo-6,7-dihydro-4H-thieno[3,2-c]thiopyran-2-carboxylic acid (1H-tetrazol-5-yl) amide] | 38%
